# From patent US8664257B2, “Oxygen-substituted 3-heteroaroylamino-propionic acid derivatives and their use as pharmaceuticals” (Sanofi, priority 2010, dated 2014)
# Target: T1, Recombinant human cathepsin A (Homo sapiens, UniProt P10619)
# T1 construct: Recombinant human cathepsin A (residues 29-480, with a C-terminal 10-His tag); 10-His (C); purchased R&D Systems 1049-SE
# T1 sequence (P10619 29-312 limits assumed): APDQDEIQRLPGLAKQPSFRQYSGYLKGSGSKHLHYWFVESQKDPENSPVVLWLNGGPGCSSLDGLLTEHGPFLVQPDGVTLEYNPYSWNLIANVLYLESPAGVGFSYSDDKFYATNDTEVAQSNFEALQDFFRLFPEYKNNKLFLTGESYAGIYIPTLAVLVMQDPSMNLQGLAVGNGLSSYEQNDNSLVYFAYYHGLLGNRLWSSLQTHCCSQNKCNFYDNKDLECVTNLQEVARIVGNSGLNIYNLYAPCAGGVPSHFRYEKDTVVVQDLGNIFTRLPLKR
# T1 sequence (P10619 327-480 limits assumed): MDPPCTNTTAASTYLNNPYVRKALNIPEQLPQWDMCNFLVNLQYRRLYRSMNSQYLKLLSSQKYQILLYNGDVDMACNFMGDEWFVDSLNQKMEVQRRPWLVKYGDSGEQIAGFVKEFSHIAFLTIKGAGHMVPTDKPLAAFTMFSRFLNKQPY
# Assay: Cathepsin A inhibitory activity
# Type: biochemical
# Details: pharmacological test "Cathepsin A inhibitory activity"; IC50 given as class A/B/C; read-out: Activity (2): Cathepsin A inhibitory activity, IC50 class
# How it was run: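 Read-out was microfluidic separation of cleaved vs. uncleaved Bodipy FL-bradykinin (2 μM), giving turnover, % inhibition and IC50. Compound and 833 ng/ml enzyme met for 15 min RT in pH 5.5 MES/DTT before substrate (15 min RT). The 29-480 His-tagged human enzyme was first activated by cathepsin L, then E-64 (10 μM).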
row,IC50,SMILES
1,100 to 1000 nM,O=C(O)CC(NC(=O)c1cc(O)n(-c2ccccc2Cl)n1)c1ccc(Cl)c(Cl)c1 (stereo not drawn) [Example 227]
2,100 to 1000 nM,O=C(O)C[C@H](NC(=O)c1cc(O)n(-c2ccccc2)n1)c1cccc(Cl)c1 [Example 167]
3,< 100 nM,O=C(O)C[C@@H](NC(=O)c1cc(O)n(-c2ccccc2F)n1)c1ccc(-c2ccc(F)cc2)cc1 [Example 147]
4,100 to 1000 nM,O=C(O)CC(NC(=O)c1cc(O)n(-c2ccccc2F)n1)c1cccc(Oc2ccc(Cl)cc2)c1 (stereo not drawn) [Example 246]
5,100 to 1000 nM,COc1cccc(-c2ccc(C(CC(=O)O)NC(=O)c3cc(O)n(-c4ccccc4F)n3)cc2)c1 (stereo not drawn) [Example 156]
6,100 to 1000 nM,COc1ccc(Cl)cc1C(CC(=O)O)NC(=O)c1cc(O)n(-c2cccc(Cl)c2)n1 (stereo not drawn) [Example 255]
7,100 to 1000 nM,O=C(O)CC(NC(=O)c1cc(O)n(-c2ccccc2Cl)n1)c1ccc(-c2cccc(F)c2)cc1 (stereo not drawn) [Example 219]
8,100 to 1000 nM,N#Cc1cccc([C@H](CC(=O)O)NC(=O)c2cc(O)n(-c3ccccc3F)n2)c1 [Example 230]
9,100 to 1000 nM,N#Cc1cccc([C@H](CC(=O)O)NC(=O)c2cc(O)n(-c3ccccc3Cl)n2)c1 [Example 205]

# Same assay, conditions: read-out: Activity (2): Cathepsin A inhibitory activity (IC50 class)
row,IC50,SMILES
1,< 100 nM,"COc1cc(C(=O)NC(CC(=O)O)c2cccc(C)c2C)nn1-c1ccccc1F (stereo not drawn) [Example 682, 3-(2,3-Dimethyl-phenyl)-3-{[1-(2-fluoro-phenyl)-5-methoxy-1H-pyrazole-3-carbonyl]-amino}-propionic acid]"
2,< 100 nM,"Cc1ccccc1[C@H](CC(=O)O)NC(=O)c1cc(OC[C@H](O)C(C)(C)C)n(-c2ccccc2F)n1 (single isomer, unassigned) [Example 745]"
3,< 100 nM,Cc1ccccc1[C@H](CC(=O)O)NC(=O)c1cc(OCC2CCCCC2)n(-c2ccccc2F)n1 [Example 638]
4,< 100 nM,CCOc1cc(C(=O)NC(CC(=O)O)c2ccc(C)cc2C)nn1-c1ccccc1Cl (stereo not drawn) [Example 728]
5,< 100 nM,"Cc1c(F)cccc1C(CC(=O)O)NC(=O)c1cc(OCC2CC2)n(-c2ccccc2F)n1 (stereo not drawn) [Example 684, 3-{[5-Cyclopropylmethoxy-1-(2-fluoro-phenyl)-1H-pyrazole-3-carbonyl]-amino}-3-(3-fluoro-2-methyl-phenyl)-propionic acid]"

row,SMILES,IC50
1,"Cc1ccc([C@H](CC(=O)O)NC(=O)c2cc(OCC(=O)C(C)(C)C)n(-c3ccccc3F)n2)cc1 [Example 791, (S)-3-{[5-(3,3-Dimethyl-2-oxo-butoxy)-1-(2-fluoro-phenyl)-1H-pyrazole-3-carbonyl]-amino}-3-p-tolyl-propionic acid]",< 100 nM
2,"CC(C)(C)[C@@](C)(O)COc1cc(C(=O)N[C@@H](CC(=O)O)c2cccc(F)c2)nn1-c1ccccc1F [Example 779, (S)-3-(3-Fluoro-phenyl)-3-{[1-(2-fluoro-phenyl)-5-((R)-2-hydroxy-2,3,3-trimethyl-butoxy)-1H-pyrazole-3-carbonyl]-amino}-propionic acid]",< 100 nM

# Same assay, conditions: read-out: Activity (2): Cathepsin A inhibitory activity, IC50 class
row,IC50,SMILES
1,1000 to 30000 nM,O=C(O)CC(NC(=O)c1cc(O)n(-c2ccc(Cl)cc2)n1)c1ccc(Cl)cc1F (stereo not drawn) [Example 286]
2,1000 to 30000 nM,COc1ccc(C(CC(=O)O)NC(=O)c2cc(O)n(-c3ccc(F)c(Cl)c3)n2)c(F)c1 (stereo not drawn) [Example 88]
3,100 to 1000 nM,O=C(O)CC(NC(=O)c1cc(O)n(-c2ccc(F)cc2F)n1)c1cccc(Cl)c1 (stereo not drawn) [Example 380]
4,1000 to 30000 nM,Cc1ccc(C)c(-n2nc(C(=O)NC3(CC(=O)O)CCCC3)cc2O)c1 [Example 42]
5,100 to 1000 nM,N#Cc1ccc([C@H](CC(=O)O)NC(=O)c2cc(O)n(-c3ccccc3Cl)n2)cc1 [Example 112]
6,< 100 nM,"O=C(O)CC(NC(=O)c1cc(O)n(-c2ccc(F)cc2F)n1)c1cccc(C(F)(F)F)c1F (stereo not drawn) [Example 385, 3-{[1-(2,4-Difluoro-phenyl)-5-hydroxy-1H-pyrazole-3-carbonyl]-amino}-3-(2-fluoro-3-trifluoromethyl-phenyl)-propionic acid]"
7,1000 to 30000 nM,O=C(O)CC(NC(=O)c1cc(O)n(-c2ccccc2)n1)C1CC1 (stereo not drawn) [Example 17]
8,1000 to 30000 nM,Cc1ccc(C)c(-n2nc(C(=O)NC(CC(=O)O)C3CCCC3)cc2O)c1 (stereo not drawn) [Example 44]
9,100 to 1000 nM,O=C(O)CC(NC(=O)c1cc(O)n(-c2cccc(F)c2)n1)c1ccc(Oc2ccccc2)cc1 (stereo not drawn) [Example 330]
10,1000 to 30000 nM,Cc1cc(C)cc(-n2nc(C(=O)NC(CC(=O)O)c3ccccc3C)cc2O)c1 (stereo not drawn) [Example 78]
11,100 to 1000 nM,O=C(O)CC(NC(=O)c1cc(O)n(-c2ccccc2Cl)n1)c1cccc(Cl)c1 (stereo not drawn) [Example 391]
12,1000 to 30000 nM,O=C(O)CC(NC(=O)c1cc(O)n(-c2ccccc2)n1)c1ccc(F)cc1 (stereo not drawn) [Example 61]
13,100 to 1000 nM,O=C(O)C[C@H](NC(=O)c1cc(O)n(-c2cccc(F)c2)n1)c1ccccc1C(F)(F)F [Example 329]
14,1000 to 30000 nM,COc1ccc(C(CC(=O)O)NC(=O)c2cc(O)n(-c3ccccc3)n2)cc1F (stereo not drawn) [Example 68]
15,100 to 1000 nM,Cc1ccc(C(CC(=O)O)NC(=O)c2cc(O)n(-c3ccccc3)n2)c(C)c1 (stereo not drawn) [Example 84]
16,< 100 nM,Cc1ccccc1[C@H](CC(=O)O)NC(=O)c1cc(O)n(-c2ccc(F)cc2)n1 [Example 76]
17,100 to 1000 nM,O=C(O)CC(NC(=O)c1cc(O)n(-c2ccc(F)cc2)n1)c1ccc(-c2cccc(F)c2)cc1 (stereo not drawn) [Example 356]
18,100 to 1000 nM,COc1ccc(Cl)cc1C(CC(=O)O)NC(=O)c1cc(O)n(-c2cccc(F)c2)n1 (stereo not drawn) [Example 309]
19,1000 to 30000 nM,O=C(O)CC1(NC(=O)c2cc(O)n(-c3ccccc3)n2)CCCC1 [Example 5]

row,SMILES,IC50
1,"CC(C)[C@@](C)(O)COc1cc(C(=O)NC(CC(=O)O)Cc2ccccc2)nn1-c1ccccc1F (stereo partly drawn) [Example 821, 3-{[1-(2-Fluoro-phenyl)-5-((R)-2-hydroxy-2,3-dimethyl-butoxy)-1H-pyrazole-3-carbonyl]-amino}-4-phenyl-butyric acid]",< 100 nM
2,"CC(C)C(C)(O)COc1cc(C(=O)N[C@H](CC(=O)O)Cc2ccc(C#N)cc2)nn1-c1ccccc1F (stereo partly drawn) [Example 836, (S)-4-(4-Cyano-phenyl)-3-{[1-(2-fluoro-phenyl)-5-(2-hydroxy-2,3-dimethyl-butoxy)-1H-pyrazole-3-carbonyl]-amino}-butyric acid]",1000 to 30000 nM
3,"CC(C)[C@](C)(O)COc1cc(C(=O)NC2(CC(=O)O)CCCC2)nn1-c1ccccc1F [Example 825, (1-{[1-(2-Fluoro-phenyl)-5-((S)-2-hydroxy-2,3-dimethyl-butoxy)-1H-pyrazole-3-carbonyl]-amino}-cyclopentyl)-acetic acid]",100 to 1000 nM
4,"CC(C)(C)C(=O)COc1cc(C(=O)N[C@@H](CC(=O)O)c2cccc(Cl)c2Cl)nn1-c1ccccc1F [Example 839, (S)-3-(2,3-Dichloro-phenyl)-3-{[5-(3,3-dimethyl-2-oxo-butoxy)-1-(2-fluoro-phenyl)-1H-pyrazole-3-carbonyl]-amino}-propionic acid]",< 100 nM
5,"COc1ccccc1[C@H](CC(=O)O)NC(=O)c1cc(OC[C@@](C)(O)C(C)(C)C)n(-c2ccccc2F)n1 [Example 810, (S)-3-{[1-(2-Fluoro-phenyl)-5-((S)-2-hydroxy-2,3,3-trimethyl-butoxy)-1H-pyrazole-3-carbonyl]-amino}-3-(2-methoxy-phenyl)-propionic acid]",< 100 nM
6,"CC(C)(C)[C@H](O)COc1cc(C(=O)N[C@@H](CC(=O)O)c2cccc(Cl)c2)nn1-c1ccccc1F [Example 809, (S)-3-(3-Chloro-phenyl)-3-{[1-(2-fluoro-phenyl)-5-((S)-2-hydroxy-3,3-dimethyl-butoxy)-1H-pyrazole-3-carbonyl]-amino}-propionic acid]",< 100 nM

# Same assay, conditions: recombinant human cathepsin A 833 ng/ml, Bodipy FL-labeled bradykinin 2 μM, pH 5.5; read-out: CATH-A IC50
row,IC50,SMILES
1,4.7 nM,"Cc1ccccc1[C@H](CC(=O)O)NC(=O)c1cc(OC[C@H](O)C(C)(C)C)n(-c2ccccc2F)n1 (single isomer, unassigned) [Example 745]"
2,60.7 nM,"O=C(O)CC(NC(=O)c1cc(O)n(-c2ccc(F)cc2F)n1)c1cccc(C(F)(F)F)c1F (stereo not drawn) [Example 385, 3-{[1-(2,4-Difluoro-phenyl)-5-hydroxy-1H-pyrazole-3-carbonyl]-amino}-3-(2-fluoro-3-trifluoromethyl-phenyl)-propionic acid]"
3,102 nM,"Cc1c(F)cccc1C(CC(=O)O)NC(=O)c1cc(O)n(-c2ccccc2F)n1 (stereo not drawn) [Example 516, 3-(3-Fluoro-2-methyl-phenyl)-3-{[1-(2-fluoro-phenyl)-5-hydroxy-1H-pyrazole-3-carbonyl]-amino}-propionic acid]"
4,118 nM,"O=C(O)CC(NC(=O)c1cc(O)n(-c2ccccc2Cl)n1)c1cc(F)ccc1C(F)(F)F (stereo not drawn) [Example 460, 3-{[1-(2-Chloro-phenyl)-5-hydroxy-1H-pyrazole-3-carbonyl]-amino}-3-(5-fluoro-2-trifluoromethyl-phenyl)-propionic acid]"

# Same assay, conditions: recombinant human cathepsin A; read-out: Activity (2): Cathepsin A inhibitory activity, IC50 class
row,IC50,SMILES
1,100 to 1000 nM,COc1ccc(C(CC(=O)O)NC(=O)c2cc(O)n(-c3ccc(Cl)cc3)n2)c(Cl)c1 (stereo not drawn) [Example 424]
2,100 to 1000 nM,O=C(O)CC(NC(=O)c1cc(O)n(-c2cccc(F)c2)n1)c1cccc2c1OC(F)(F)O2 (stereo not drawn) [Example 484]
3,100 to 1000 nM,"Cc1c(F)cccc1C(CC(=O)O)NC(=O)c1cc(O)n(-c2ccccc2F)n1 (stereo not drawn) [Example 516, 3-(3-Fluoro-2-methyl-phenyl)-3-{[1-(2-fluoro-phenyl)-5-hydroxy-1H-pyrazole-3-carbonyl]-amino}-propionic acid]"
4,100 to 1000 nM,"O=C(O)CC(NC(=O)c1cc(O)n(-c2ccccc2Cl)n1)c1cc(F)ccc1C(F)(F)F (stereo not drawn) [Example 460, 3-{[1-(2-Chloro-phenyl)-5-hydroxy-1H-pyrazole-3-carbonyl]-amino}-3-(5-fluoro-2-trifluoromethyl-phenyl)-propionic acid]"
5,100 to 1000 nM,COc1cc(C(=O)N[C@@H](CC(=O)NC(C)C)c2ccccc2C)nn1-c1ccccc1F [Example 929]
6,100 to 1000 nM,O=C(O)CC(NC(=O)c1cc(O)n(-c2ccccc2F)n1)c1cc(F)ccc1C(F)(F)F (stereo not drawn) [Example 477]
